# Assay results: ChEMBL document CHEMBL5257115, “Synthesis of novel ciprofloxacin-avibactam conjugates for the development of second-generation non-β-lactam-β-lactamase inhibitors” (Bioorg Med Chem Lett, 2023)
# Calls of active or inactive are those of the source. The rule behind the calls is not given here.
# What was measured:
# [1] = tested on: Acinetobacter baumannii; assay: Antibacterial activity against multidrug resistant Acinetobacter baumannii ATCC 2803 assessed as bacterial growth inhibition; format: functional
# [2] = tested on: Klebsiella pneumoniae; assay: Antibacterial activity against multidrug resistant Klebsiella pneumoniae ATCC 2782 assessed as bacterial growth inhibition; format: functional
# [3] = tested on: Klebsiella pneumoniae; assay: Antibacterial activity against multidrug resistant Klebsiella pneumoniae ATCC 2146 assessed as bacterial growth inhibition; format: functional
# [4] = tested on: Escherichia coli; assay: Antibacterial activity against multidrug resistant Escherichia coli ATCC 2774 assessed as bacterial growth inhibition; format: functional
# [5] = tested on: Staphylococcus aureus; assay: Antibacterial activity against multidrug resistant Staphylococcus aureus ATCC 43300 assessed as bacterial growth inhibition; format: functional
# [6] = tested on: Escherichia coli; assay: Antibacterial activity against multidrug resistant Escherichia coli ATCC 25922 assessed as bacterial growth inhibition; format: functional
# [7] = tested on: Staphylococcus aureus; assay: Antibacterial activity against multidrug resistant Staphylococcus aureus ATCC 25923 assessed as bacterial growth inhibition; format: functional
# [8] = target: T1, Metallo-beta-lactamase type 2 (Bacillus cereus, UniProt P14488); assay: Inhibition of Bacillus cereus beta-lactamase II
# T1 sequence (P14488 whole entry): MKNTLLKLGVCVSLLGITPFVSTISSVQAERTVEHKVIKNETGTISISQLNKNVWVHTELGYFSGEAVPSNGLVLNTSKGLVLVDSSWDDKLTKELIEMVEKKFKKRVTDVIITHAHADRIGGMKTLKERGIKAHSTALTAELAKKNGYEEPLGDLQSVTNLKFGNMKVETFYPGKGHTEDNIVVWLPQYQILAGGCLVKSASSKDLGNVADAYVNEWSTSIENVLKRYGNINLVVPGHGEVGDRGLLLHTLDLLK
# [9] = tested on: Escherichia coli; assay: Synergistic antibacterial activity against multidrug resistant Escherichia coli ATCC 2774 assessed as bacterial growth inhibition in presence of ceftazidime; format: functional, organism-based
# [10] = tested on: Klebsiella pneumoniae; assay: Synergistic antibacterial activity against multidrug resistant Klebsiella pneumoniae ATCC 2782 assessed as bacterial growth inhibition in presence of ceftazidime; format: functional, organism-based
# [11] = tested on: Escherichia coli; assay: Synergistic antibacterial activity against multidrug resistant Escherichia coli ATCC 25922 assessed as bacterial growth inhibition in presence of ceftazidime; format: functional, organism-based
# [12] = Hemolytic activity in human RBC assessed as hemolysis at 512 ug/ml; format: toxicity, cell-based, Erythrocyte; conditions: red blood cells (RBC), at 512 µg/mL, read-out: Activity
# [13] = tested on: Klebsiella pneumoniae; assay: Synergistic antibacterial activity against multidrug resistant Klebsiella pneumoniae ATCC 2146 assessed as bacterial growth inhibition in presence of ceftazidime; format: functional, organism-based
SMILES,MIC [1] [µg/mL],MIC [2] [µg/mL],MIC [3] [µg/mL],MIC [4] [µg/mL],MIC [5] [µg/mL],MIC [6] [µg/mL],MIC [7] [µg/mL],IC50 [8] [nM],Activity [9],Activity [10],Activity [11],hemolysis at 512 ug/ml [12] [%],Activity [13]
O=C(O)c1cn(C2CC2)c2cc(N3CCNCC3)c(F)cc2c1=O [CIPROFLOXACIN],> 128,> 128,> 128,128,0.5,–,–,–,–,–,–,–,–
O=C(NNC(=O)[C@H](Cc1ccccc1)NC(=O)[C@@H]1CC[C@@H]2CN1C(=O)N2OS(=O)(=O)O)c1cn(C2CC2)c2cc(N3CCNCC3)c(F)cc2c1=O,> 128,> 128,> 128,> 128,> 128,16,8,–,–,–,–,–,–
O=C(NNC(=O)[C@@H]1CC[C@@H]2CN1C(=O)N2OS(=O)(=O)O)c1cn(C2CC2)c2cc(N3CCNCC3)c(F)cc2c1=O,> 128,> 128,> 128,> 128,128,16,8,1.69,Active,Active,Active,4.27,Active
CC[C@H](C)C(NC(=O)[C@@H]1CC[C@@H]2CN1C(=O)N2OS(=O)(=O)O)C(=O)NNC(=O)c1cn(C2CC2)c2cc(N3CCNCC3)c(F)cc2c1=O (stereo partly drawn),> 128,> 128,> 128,> 128,> 128,32,> 256,–,–,–,–,–,–
NC(=O)[C@@H]1CC[C@@H]2CN1C(=O)N2OS(=O)(=O)O [AVIBACTAM],> 128,32,8,8,> 128,8,256,141,Active,Active,Active,3.87,Active
O=C(CCCNC(=O)[C@@H]1CC[C@@H]2CN1C(=O)N2OS(=O)(=O)O)NNC(=O)c1cn(C2CC2)c2cc(N3CCNCC3)c(F)cc2c1=O,> 64,> 32,> 64,> 32,> 64,8,> 64,–,–,–,–,–,–
CC(C)(C)OC(=O)N1CCN(c2cc3c(cc2F)c(=O)c(C(=O)NNC(=O)[C@@H]2CC[C@@H]4CN2C(=O)N4OS(=O)(=O)[O-])cn3C2CC2)CC1.CCCC[N+](CCCC)(CCCC)CCCC,> 128,> 128,> 128,> 128,> 128,> 256,8,–,–,–,–,–,–
O=C(CNC(=O)[C@@H]1CC[C@@H]2CN1C(=O)N2OS(=O)(=O)O)NNC(=O)c1cn(C2CC2)c2cc(N3CCNCC3)c(F)cc2c1=O,> 128,> 128,> 128,> 128,> 128,8,> 256,226,Active,Active,Active,5.74,Active
O=C(CCCCCNC(=O)[C@@H]1CC[C@@H]2CN1C(=O)N2OS(=O)(=O)O)NNC(=O)c1cn(C2CC2)c2cc(N3CCNCC3)c(F)cc2c1=O,> 64,> 32,> 64,> 32,> 64,4,> 64,–,–,–,–,–,–
CC(C)[C@H](NC(=O)[C@@H]1CC[C@@H]2CN1C(=O)N2OS(=O)(=O)O)C(=O)NNC(=O)c1cn(C2CC2)c2cc(N3CCNCC3)c(F)cc2c1=O,> 128,> 128,> 128,> 128,> 128,16,128,57.4,Active,Active,Active,5.1,Active
C[C@H](NC(=O)[C@@H]1CC[C@@H]2CN1C(=O)N2OS(=O)(=O)O)C(=O)NNC(=O)c1cn(C2CC2)c2cc(N3CCNCC3)c(F)cc2c1=O,> 128,> 128,> 128,> 128,32,1,16,–,–,–,–,–,–
COc1ccc(C[C@H](NC(=O)[C@@H]2CC[C@@H]3CN2C(=O)N3OS(=O)(=O)O)C(=O)NNC(=O)c2cn(C3CC3)c3cc(N4CCNCC4)c(F)cc3c2=O)cc1OC,> 64,> 64,> 64,> 64,> 64,32,> 64,–,–,–,–,–,–
O=C(NNC(=O)[C@@H]1CCCN1C(=O)[C@@H]1CC[C@@H]2CN1C(=O)N2OS(=O)(=O)O)c1cn(C2CC2)c2cc(N3CCNCC3)c(F)cc2c1=O,> 128,> 128,> 128,> 128,> 128,8,128,–,–,–,–,–,–
